Source: ChEMBL document CHEMBL5500364, “Design, synthesis, and biological evaluation of some 2-(3-oxo-5,6-diphenyl-1,2,4-triazin-2(3H)-yl)-N-phenylacetamide hybrids as MTDLs for Alzheimer's disease therapy” (Eur J Med Chem, 2024)
Active and inactive are the calls of the source. No cut-off for these calls is given here.

Assays:
[1] = Toxicity in wildtype Oregon R-positive Drosophila assessed as cell viability in gut at 10 uM by MTT assay relative to control; type: tissue-based; details: read-out: Activity
[2] = tested on: Rattus norvegicus; experiment: (§1) Reversal of amyloid beta (1 to 42 residues) induced cognitive impairment in Wistar rat assessed as decrease in APP protein level at 10 mg/kg, po pretreated with amyloid beta for 7 days followed by compound administration for 9 days and measured after 5 days by Western blot analysis; type: functional, organism-based; details: time 14.0 day
[3] = tested on: Rattus norvegicus; experiment: as §1, with “BACE-1” for “APP protein”, “level in CA3 region of hippocampus” for “level”, “immuno histochemical” for “Western blot”; type: functional, organism-based; details: time 14.0 day
[4] = tested on: Rattus norvegicus; experiment: Reversal of amyloid beta (1 to 42 residues) induced cognitive impairment in Wistar rat assessed as increase in platform crossings at 10 mg/kg, po pretreated with amyloid beta for 7 days followed by compound administration for 9 days and measured after 5 days by Morris water maze test; type: functional, organism-based; details: time 14.0 day
[5] = biological target: Amyloid-beta precursor protein (Homo sapiens) (UniProt P05067); experiment: Inhibition of human AchE-induced amyloid beta (1 to 42) (unknown origin) aggregation at 5 to 20 uM incubated for 48 hrs by Thioflavin T fluorescence assay relative to control; details: dose 5-20 µM
[6] = tested on: Rattus norvegicus; experiment: as §1, with “amyloid” for “APP protein”, “level in CA3 region of hippocampus” for “level”, “immuno histochemical” for “Western blot”; type: functional, organism-based; details: time 14.0 day
[7] = Acute toxicity in Wistar rat assessed as effect on kidney appearance at 500 to 1000 mg/kg, po administered for 14 days by histopathological analysis; type: organism-based; details: in vivo, 336 h, dose 500-1000 mg/kg, time 14 day
[8] = Acute toxicity in Wistar rat assessed as effect on PCT shape at 500 to 1000 mg/kg, po administered for 14 days by histopathological analysis; type: organism-based; details: in vivo, 336 h, dose 500-1000 mg/kg, time 14 day
[9] = biological target: Acetylcholinesterase (Homo sapiens, UniProt P22303); experiment: Mixed type non-competitive inhibition of human erythrocyte AChE using acetylthiocholine iodide as substrate assessed as dissociation constant by dixon plot analysis
[10] = Acute toxicity in Wistar rat assessed as body weight loss at 500 to 1000 mg/kg, po measured for 2 to 3 days relative to control; type: organism-based; details: in vivo, dose lower 500 mg/kg, time lower 2 day, dose upper 1000 mg/kg, time upper 3 day
[11] = tested on: SH-SY5Y; experiment: Neuroprotective activity against amyloid-beta(1 to 42) induced oxidative stress in differentiated human SH-SY5Y cells assessed as increase in cell viability at 40 uM preincubated with amyloid-beta (1 to 42 ) for 24 hrs followed by compound addition and measured after 48 hrs by MTT assay relative to control; type: functional
[12] = biological target: Amyloid-beta precursor protein (Homo sapiens) (UniProt P05067); experiment: Inhibition of amyloid beta (1 to 42) (unknown origin) aggregation assessed as appearance of thinner aggregates at 50 uM incubated for 48 hrs by TEM imaging analysis
[13] = tested on: Rattus norvegicus; experiment: (§2) Reversal of amyloid beta (1 to 42 residues) induced cognitive impairment in Wistar rat assessed as decrease in BACE-1 protein level at 10 mg/kg, po pretreated with amyloid beta for 7 days followed by compound administration for 9 days and measured after 5 days by Western blot analysis; type: functional, organism-based; details: time 14.0 day
[14] = tested on: Rattus norvegicus; experiment: as §2, with “BACE-1” for “BACE-1 protein”, “level in DG region of hippocampus” for “level”, “immuno histochemical” for “Western blot”; type: functional, organism-based; details: time 14.0 day
[15] = Permeability of compound in PBS at pH 7.4 incubated for 18 hrs by PAMPA-BBB assay
[16] = tested on: Rattus norvegicus; experiment: Upregulation of ACh level in scopolamine-induced male Wistar rat brain hippocampus preadministered with compound orally for 30 mins starting from 7 th day trail followed by scopolamine administration and measured after 5 mins by GENELISA; type: functional, tissue-based; details: dose 2.5-10 mg/kg, route po, time 35.0 min
[17] = tested on: Hippocampus; experiment: Reversal of scopolamine-induced oxidative stress in male Wistar rat brain hippocampus assessed as increase in GSH level preadministered orally with compound for 30 mins starting from 7 th day trail followed by scopolamine administration and measured after 5 mins; type: functional, tissue-based; details: dose 2.5-10 mg/kg, route po, time 35.0 min
[18] = Half-life in male Wistar rat at 10 mg/kg, po measured after 72 hrs by HPLC analysis; type: ADME, organism-based; details: in vivo
[19] = tested on: Rattus norvegicus; experiment: Reversal of amyloid beta (1 to 42 residues) induced cognitive impairment in Wistar rat assessed as reduction in focal gliosis in cerebral cortex at 2.5 to 10 mg/kg, po pretreated with amyloid beta for 7 days followed by compound administration for 9 days and measured after 5 days by Nissl's staining based analysis; type: functional, organism-based; details: dose 2.5-10 mg/kg, time 14.0 day
[20] = Toxicity in wildtype Oregon R-positive Drosophila assessed as cell viability in gut at 5 uM by MTT assay relative to control; type: tissue-based; details: read-out: Activity
[21] = tested on: Hippocampus; experiment: Reversal of scopolamine-induced oxidative stress in male Wistar rat brain hippocampus assessed as increase in SOD level at 2.5 to 10 mg/kg, po preadministered with compound for 30 mins starting from 7 th day trail followed by scopolamine administration and measured after 5 mins […]; type: functional, organism-based; details: dose 2.5-10 mg/kg, time 35.0 min
[22] = Acute toxicity in Wistar rat assessed as effect on vacuole appearance in liver at 500 to 1000 mg/kg, po administered for 14 days by histopathological analysis; type: organism-based; details: in vivo, 336 h, dose 500-1000 mg/kg, time 14 day
[23] = Acute toxicity in Wistar rat assessed as effect on lung appearance at 500 to 1000 mg/kg, po administered for 14 days by histopathological analysis; type: organism-based; details: in vivo, 336 h, dose 500-1000 mg/kg, time 14 day
[24] = biological target: Cholinesterase (Homo sapiens, UniProt P06276); experiment: Inhibition of human BChE using butyrylthiocholine iodide as substrate preincubated for 30 mins followed by substrate addition by DTNB based Ellman's colorimetric method
[25] = tested on: Rattus norvegicus; experiment: Reversal of amyloid beta (1 to 42 residues) induced cognitive impairment in Wistar rat assessed as decrease in Tau protein level at 10 mg/kg, po pretreated with amyloid beta for 7 days followed by compound administration for 9 days and measured after 5 days by Western blot analysis; type: functional, organism-based; details: time 14.0 day
[26] = Acute toxicity in Wistar rat assessed as effect on glomerulus shape at 500 to 1000 mg/kg, po administered for 14 days by histopathological analysis; type: organism-based; details: in vivo, 336 h, dose 500-1000 mg/kg, time 14 day
[27] = biological target: Amyloid-beta precursor protein (Homo sapiens) (UniProt P05067); experiment: Inhibition of amyloid beta (1 to 42) (unknown origin) aggregation assessed as reduction in fluorescence intensity at 50 uM incubated for 48 hrs by confocal microscopic analysis
[28] = Acute toxicity in Wistar rat assessed as effect on heart tissue at 500 to 1000 mg/kg, po administered for 14 days by histopathological analysis; type: organism-based; details: in vivo, 336 h, dose 500-1000 mg/kg, time 14 day
[29] = tested on: Rattus norvegicus; experiment: (§3) Antialzheimer activity against scopolamine-induced amnesia in male Wistar rat model assessed as increase in total arm enteries at 2.5 to 10 mg/kg, po preadministered with compound for 30 mins starting from 7 th day trail followed by scopolamine administration and measured after 5 mins by Y maze test; type: functional, organism-based; details: dose 2.5-10 mg/kg, time 35.0 min
[30] = MRT in male Wistar rat at 10 mg/kg, po measured after 72 hrs by HPLC analysis; type: ADME, organism-based; details: in vivo
[31] = tested on: Rattus norvegicus; experiment: as §3, with “restoration of memory function by measuring percentage spontaneous alteration” for “increase in total arm enteries”; type: functional, organism-based; details: dose 2.5-10 mg/kg, time 35.0 min
[32] = biological target: Amyloid-beta precursor protein (Homo sapiens) (UniProt P05067); experiment: Inhibition of amyloid beta (1 to 42) (unknown origin) self aggregation ar 5 to 20 uM incubated for 48 hrs by Thioflavin T fluorescence assay relative to control; details: dose 5-20 µM
[33] = Toxicity in wildtype Oregon R-positive Drosophila assessed as eclosion at 10 uM pretreated for 5 days and measured for 15 days relative to control; details: 480 h, time 20 day

Sequence of Amyloid-beta precursor protein (Homo sapiens) (P05067 whole entry, the tested form may be a part): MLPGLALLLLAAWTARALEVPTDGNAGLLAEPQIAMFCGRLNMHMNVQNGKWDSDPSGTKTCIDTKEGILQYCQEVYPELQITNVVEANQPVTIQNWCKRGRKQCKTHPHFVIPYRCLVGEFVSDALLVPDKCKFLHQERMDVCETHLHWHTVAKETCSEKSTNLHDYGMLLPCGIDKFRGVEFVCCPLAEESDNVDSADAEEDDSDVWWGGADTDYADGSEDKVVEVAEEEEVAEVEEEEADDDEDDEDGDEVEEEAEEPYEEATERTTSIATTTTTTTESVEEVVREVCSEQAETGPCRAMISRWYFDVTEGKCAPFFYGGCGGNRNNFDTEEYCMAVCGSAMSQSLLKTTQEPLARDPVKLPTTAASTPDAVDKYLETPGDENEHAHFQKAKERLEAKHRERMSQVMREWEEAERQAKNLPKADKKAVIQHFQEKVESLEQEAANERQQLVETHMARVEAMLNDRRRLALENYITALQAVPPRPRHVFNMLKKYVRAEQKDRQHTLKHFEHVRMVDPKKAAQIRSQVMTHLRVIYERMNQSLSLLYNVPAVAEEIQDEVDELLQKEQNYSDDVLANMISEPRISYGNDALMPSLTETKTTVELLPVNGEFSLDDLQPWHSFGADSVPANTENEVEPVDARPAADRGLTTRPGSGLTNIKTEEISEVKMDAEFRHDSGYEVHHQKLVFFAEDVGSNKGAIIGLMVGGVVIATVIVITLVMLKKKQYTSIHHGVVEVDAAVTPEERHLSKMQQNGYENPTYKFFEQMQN
Sequence of Cholinesterase (P06276 whole entry, the tested form may be a part): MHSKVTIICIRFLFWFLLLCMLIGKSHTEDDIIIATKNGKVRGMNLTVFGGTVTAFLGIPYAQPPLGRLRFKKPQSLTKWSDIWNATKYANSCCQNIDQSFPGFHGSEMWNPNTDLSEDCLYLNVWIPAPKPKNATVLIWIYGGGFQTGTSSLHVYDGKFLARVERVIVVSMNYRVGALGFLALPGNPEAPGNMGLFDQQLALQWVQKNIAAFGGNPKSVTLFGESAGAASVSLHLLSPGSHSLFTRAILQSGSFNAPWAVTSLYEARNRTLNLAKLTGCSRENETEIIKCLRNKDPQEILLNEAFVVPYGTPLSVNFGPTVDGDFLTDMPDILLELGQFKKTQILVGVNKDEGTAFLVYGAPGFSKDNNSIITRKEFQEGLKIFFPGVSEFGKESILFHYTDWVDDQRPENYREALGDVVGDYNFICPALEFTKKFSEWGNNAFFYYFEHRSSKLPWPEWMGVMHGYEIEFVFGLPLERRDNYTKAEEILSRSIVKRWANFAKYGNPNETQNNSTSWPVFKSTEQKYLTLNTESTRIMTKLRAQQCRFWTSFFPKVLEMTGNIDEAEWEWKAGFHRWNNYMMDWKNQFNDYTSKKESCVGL
Sequence of Acetylcholinesterase (P22303 whole entry): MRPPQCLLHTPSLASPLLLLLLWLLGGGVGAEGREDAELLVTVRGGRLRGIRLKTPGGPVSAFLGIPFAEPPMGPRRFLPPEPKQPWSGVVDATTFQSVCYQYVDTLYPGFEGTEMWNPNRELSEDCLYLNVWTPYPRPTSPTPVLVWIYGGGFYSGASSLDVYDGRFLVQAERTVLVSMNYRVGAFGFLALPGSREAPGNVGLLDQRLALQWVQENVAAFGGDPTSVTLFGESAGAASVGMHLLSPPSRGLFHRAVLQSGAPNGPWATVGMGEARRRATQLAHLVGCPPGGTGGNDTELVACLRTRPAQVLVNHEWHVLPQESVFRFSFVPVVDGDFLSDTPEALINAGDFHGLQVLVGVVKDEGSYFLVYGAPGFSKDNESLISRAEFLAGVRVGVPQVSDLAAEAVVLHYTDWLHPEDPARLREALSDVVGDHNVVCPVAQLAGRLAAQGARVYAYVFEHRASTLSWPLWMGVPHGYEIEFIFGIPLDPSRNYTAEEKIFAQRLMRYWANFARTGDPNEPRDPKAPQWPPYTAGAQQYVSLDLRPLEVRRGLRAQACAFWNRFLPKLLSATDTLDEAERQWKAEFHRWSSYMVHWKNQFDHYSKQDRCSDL

**Q.** With `COc1cc(NC(=O)Cn2nc(-c3ccccc3)c(-c3ccccc3)nc2=O)cc(OC)c1` as the compound, how does the viability at 10 µM [1] read?
**A.** 78%

**Q.** What about the Activity [2] of the same compound?
**A.** Active

**Q.** What about the Activity [3] of the same compound?
**A.** Active

**Q.** And the Activity [4]?
**A.** Active

**Q.** And the inhibition [5]?
**A.** 41.3%

**Q.** What about the Activity [6] of the same compound?
**A.** Active

**Q.** And the Activity [7]?
**A.** Non-Toxic

**Q.** What about the Activity [8] of the same compound?
**A.** Non-Toxic

**Q.** What about the Kd [9] of the same compound?
**A.** 412 nM

**Q.** And the Activity [10]?
**A.** 7%

**Q.** What about the Activity [11] of the same compound?
**A.** 72%

**Q.** What about the inhibition [12] of the same compound?
**A.** Active

**Q.** And the Activity [13]?
**A.** Active

**Q.** And the Activity [14]?
**A.** Active

**Q.** What about the Papp at 18 h [15] of the same compound?
**A.** 5.64 ×10⁻⁶ cm/s

**Q.** And the Activity [16]?
**A.** Dose-Dependent Effect

**Q.** And the Activity [17]?
**A.** Dose-Dependent Effect

**Q.** What about the half-life [18] of the same compound?
**A.** 41 h

**Q.** What about the Activity [19] of the same compound?
**A.** Active

**Q.** What about the viability at 5 µM [20] of the same compound?
**A.** 97%

**Q.** What about the Activity [21] of the same compound?
**A.** Active

**Q.** And the Activity [22]?
**A.** Non-Toxic

**Q.** And the Activity [23]?
**A.** Non-Toxic

**Q.** What about the IC50 [24] of the same compound?
**A.** > 10000 nM

**Q.** And the Activity [25]?
**A.** Active

**Q.** What about the Activity [26] of the same compound?
**A.** Non-Toxic

**Q.** What about the inhibition [27] of the same compound?
**A.** Active

**Q.** What about the Activity [28] of the same compound?
**A.** Non-Toxic

**Q.** What about the Activity [29] of the same compound?
**A.** Active

**Q.** And the MRT [30]?
**A.** 32 h

**Q.** What about the Activity [31] of the same compound?
**A.** Active

**Q.** And the inhibition [32]?
**A.** 23.6%

**Q.** And the Activity [33]?
**A.** 85%
